Literature values as cited in patent US6548045B2, “Nitroimidazole substituted porphyrin complex” (Photochemical Co., Ltd., priority 1999, dated 2003).

Key:
[1] = tested on: anoxic tissues in tumor; conditions: in vivo
[2] = in vivo
[3] = tested on: anoxic tissues in tumor; conditions: animal experiment implanting tumor

## COCC(O)Cn1ccnc1[N+](=O)[O-] (stereo not drawn) [Misonidazole]
[1]
  efficacy in the human being: no efficacy is observed
[2]
  neurotoxicity: high neurotoxin
[3]
  efficacy compared with absence of the compound: twice times more efficacies
